In patent US7655665B2, “Nitromethylene derivatives and their use” (East China University of Science and Technology, priority 2004, dated 2010):

How the values were obtained:
Nilaparvata lugens = assay: Insecticidal activity against Nilaparvata lugens (planthopper) by spraying; assay type: in vivo; conditions: 500 ppm; for mortality (%) (500 ppm) Nilaparvata-lugens: spraying 2 ml per tumbler, killed counted after 24 hours; for mortality (%) (500 ppm) Nilaparvata lugens: spraying 2 ml, counted after 24 hours
Experimental: (§1) Test on the insecticidal activity of Compound Nos. 1-227
Planthopper, which belongs to Homoptera and has a piercing-sucking mouthpart, is a common insect for agricultural plant. Nilaparvata lugens was tested by the way of spraying.
Test method: the test compound was exactly formulated into a solution having a certain concentration and clean water was used as a blank control. Each process was repeated for 3 tumblers (3 times). 2 ml of solution was sprayed uniformly to each tumbler by a mini manual sprayer. 10 Nilaparvata lugens were introduced to every sink 6 hours before spraying. Three series of experiments were conducted. The number of killed Nilaparvata lugens was counted after 24 hours to calculate the mortality.

Aphis craccivoral = assay: Insecticidal activity against Aphis craccivoral by immersing (dipping aphids on bean sprout); assay type: in vivo; conditions: 23° C.
Experimental: as §1
Aphis, which belongs to Homoptera and has a piercing-sucking mouthpart, is a common insect for agricultural plant. Aphis craccivoral was tested by the way of immersing.
Test method: exactly weighed various samples were independently added to N,N-dimethylformamide to form a 10 g/L stock solution. The mixture was diluted with 0.2 mL/L aqueous Triton X-100 solution to a concentration of 500 ug/mL. After stably sucking on bean sprout, the adult aphis without wings together with bean sprout was dipped into 500 ug/mL dilution, taken out after 5 seconds, and the excess dilution was sucked out with bibulous paper and the adult aphis without wings was incubated in clean vessel at a constant temperature of 23° C. Each concentration was repeated for 3 times and the control group contained 0.2 mL/L aqueous Triton X-100 solution. The number of killed aphis was counted after 24 hours to calculate the mortality.

[1] = 500 ppm (500 ug/mL dilution), dipped 5 seconds, killed aphis counted after 24 hours
[2] = 500 ppm, immersing (dipped 5 seconds), counted after 24 hours

SMILES | mortality (%) (500 ppm) Nilaparvata-lugens (Nilaparvata lugens) | mortality (%) (500 ppm) Aphis (Aphis craccivoral; [1]) | mortality (%) (500 ppm) Nilaparvata lugens (Nilaparvata lugens) | mortality (%) (500 ppm) Aphis (Aphis craccivoral; [2])
O=C(OC1CCC([N+](=O)[O-])=C2N(Cc3cnc(Cl)s3)CCN21)c1cc(F)c(F)c([N+](=O)[O-])c1F (stereo not shown) [Compound 169] | 13 | 2 | – | –
CC(C)(C)CN=C1CCC([N+](=O)[O-])=C2N(Cc3ccc(Cl)nc3)CCCN12 [Compound 211] | 56 | 34 | – | –
CCCN=C1CCC([N+](=O)[O-])=C2N(Cc3cnc(Cl)s3)CCN12 [Compound 217] | 100 | 23 | – | –
CCCC(C)OC1CCC([N+](=O)[O-])=C2N(CC3CCOC3)CCN21 (stereo not shown) [Compound 61] | – | – | 89 | 56
CCC(C)OC1CCC([N+](=O)[O-])=C2N(CC3CCOC3)CCCN21 (stereo not shown) [Compound 109] | – | – | 10 | 2
CCN=C1CCC([N+](=O)[O-])=C2N(Cc3ccc(Cl)nc3)CCCN12 [Compound 203] | 100 | 92 | – | –
O=C(OC1CCC([N+](=O)[O-])=C2N(Cc3cnc(Cl)s3)CCN21)C(F)(F)F (stereo not shown) [Compound 155] | – | – | 90 | 48
CC(C)SC1CCC([N+](=O)[O-])=C2N(Cc3ccc(Cl)nc3)CCN21 (stereo not shown) [Compound 137] | – | – | 100 | 89
O=[N+]([O-])C1=C2N(Cc3cnc(Cl)s3)CCN2C(OC(C(F)(F)F)C(F)(F)F)CC1 (racemic) [Compound 30] | – | – | 98 | 58
CC1CC(O)N2CCN(Cc3ccc(Cl)nc3)C2=C1[N+](=O)[O-] (stereo not shown) [Compound 69] | – | – | 56 | 45
CC1CC(O)N2CCN(CC3CCOC3)C2=C1[N+](=O)[O-] (stereo not shown) [Compound 68] | – | – | 7 | 2
CC(C)OC1CCC([N+](=O)[O-])=C2N(Cc3cnc(Cl)s3)CCCN21 (stereo not shown) [Compound 91] | – | – | 71 | 69
CCOC1CCC([N+](=O)[O-])=C2N(Cc3cnc(Cl)s3)CCCN21 (stereo not shown) [Compound 87] | – | – | 100 | 100
O=[N+]([O-])C1=C2N(Cc3cnc(Cl)s3)CCN2C(OC2CCCCC2)CC1 (racemic) [Compound 40] | – | – | 67 | 45
CN=C1CCC([N+](=O)[O-])=C2N(Cc3cnc(Cl)s3)CCN12 [Compound 213] | 78 | 32 | – | –
O=[N+]([O-])C1=C2N(CC3CCOC3)CCN2C(O)CC1 (stereo not shown) [Compound 45] | – | – | 89 | 56
O=[N+]([O-])C1=C2N(Cc3ccc(Cl)nc3)CCCN2C(OCCCl)CC1 (stereo not shown) [Compound 74] | – | – | 13 | 12
CCCCCN=C1CCC([N+](=O)[O-])=C2N(Cc3ccc(Cl)nc3)CCCN12 [Compound 208] | 67 | 35 | – | –
CCCCN=C1CCC([N+](=O)[O-])=C2N(Cc3ccc(Cl)nc3)CCN12 [Compound 194] | 45 | 34 | – | –
O=[N+]([O-])C1=C2N(Cc3cnc(Cl)s3)CCN2C(OCCCl)CC1 (racemic) [Compound 26] | – | – | 64 | 26
